Assay results from patent publication US20260248834A1, “PHARMACEUTICAL COMPOSITION AND METHOD FOR TREATMENT OF HUMAN IMMUNODEFICIENCY VIRUS INFECTIONS” (Brii Biosciences, Inc., priority 2022, published 2026).

How the values were obtained:
[1] = Intracellular half-life of EFdA triphosphate in human; format: in vivo; details: cells (intracellular; cell type not given), read-out: intracellular half-life of EFdA triphosphate (EFdA-TP) (converted)
[2] = Stability in Human Plasma (conversion to EFdA); format: in vitro ADME
Description: (§1) The adenosine derivative having the Formula 1-A was produced according to the process described in PCT publication WO2021021717, published on Feb. 4, 2021, herein incorporated by reference. [table]

[3] = Phase I study: safety and tolerability (treatment-emergent adverse events); format: in vivo, human
Method: Following oral absorption, 1-A is rapidly converted to ISL, which is metabolized intracellularly to the active metabolite, ISL triphosphate (ISL-TP). The objectives of the study were to assess the safety, tolerability, and PK profiles of 1-A and ISL in plasma; and ISL diphosphate (ISL-DP) and ISL-TP in human PBMCs.
(§2) Methods. Healthy adult subjects were enrolled in five single ascending dose and two multiple ascending dose cohorts. 1-A was administered to single dose cohorts in amounts of 10 mg, 25 mg, 50 mg, 100 mg or 200 mg. 1-A was administered to multiple dose cohorts in amounts of 10 mg per week for 3 weeks or 25 mg per week for 3 weeks. 1-A was orally administered in the fasted state using an oral solution formulation. Safety-related assessments included physical examinations, ECGs, vital signs, AEs, and standard clinical laboratory tests.

[4] = Phase I study: pharmacokinetics of 1-A and islatravir in plasma; format: in vivo, human
Description: (§3) This example describes results from a Phase I, randomized, double-blind, placebo-controlled study for adenosine derivative having Formula 1-A (“1-A”), which is a prodrug of islatravir (ISL). Following oral absorption, 1-A is rapidly converted to ISL, which is metabolized intracellularly to the active metabolite, ISL triphosphate (ISL-TP). The objectives of the study were to assess the safety, tolerability, and PK profiles of 1-A and ISL in plasma; and ISL diphosphate (ISL-DP) and ISL-TP in human PBMCs.
as §2

[5] = Phase I study: pharmacokinetics of ISL-TP in PBMCs; format: in vivo, human; details: for ISL-TP in PBMCs AUClast / ISL-TP in PBMCs Cmax: 3 weekly oral doses of 25 mg 1-A, healthy adults, mean
Description: as §3, §2

[6] = Stability in Human Liver S9 (conversion to EFdA); format: in vitro ADME
Description: as §1

[7] = single or multiple oral doses of 1-A, 10 mg to 200 mg

Compound `C#C[C@]1(COP(=O)(O)OP(=O)(O)OP(=O)(O)O)O[C@@H](n2cnc3c(N)nc(F)nc32)C[C@@H]1O` [EFdA-TP, 4′-ethynyl-2-fluoro-2′-deoxyadenosine triphosphate] has a half-life [1] of ~108 h.
For `C#C[C@]1(COC(=O)OCc2oc(=O)oc2C)O[C@@H](n2cnc3c(N)nc(F)nc32)C[C@@H]1O` [Formula 1-A, ((2R,3S,5R)-5-(6-amino-2-fluoro-9H-purin-9-yl)-2-ethynyl-3-hydroxytetrahydro-furan-2-yl)methyl ((5-methyl-2-oxo-1,3-dioxol-4-yl)methyl) carbonate], the half-life ([2]; human plasma) was < 0.833 h, the “conversion to the target drug” value ([2]; human plasma assay) was “converted to the target drug efficiently” and the “Stability in Human Plasma Formation of EFdA at 60 min” value ([2]; human plasma, 60 min) was “Yes”. The “Number (%) of Subjects with Any Death” value ([3]; 10 mg QW × 3 oral (N = 3)) was 0, the “Number (%) of Subjects with Any TEAE” value ([3]; 10 mg QW × 3 oral (N = 3)) was 2 (66.7%) and the “Number (%) of Subjects with Any TEAE Grade 1” value ([3]; 10 mg QW × 3 oral (N = 3)) was 2 (66.7%). For the same compound, the “Number (%) of Subjects with Any TEAE Grade 2, 3, 4, or 5” value ([3]; 10 mg QW × 3 oral (N = 3)) was 0, the “Number (%) of Subjects with Any TEAE Leading to Premature Discontinuation of Study Drug” value ([3]; 10 mg QW × 3 oral (N = 3)) was 0 and the “Number (%) of Subjects with Any TEAE Related to Study Drug” value ([3]; 10 mg QW × 3 oral (N = 3)) was 2 (66.7%). The “Number (%) of Subjects with Any TEAE Related to Study Drug Grade 1” value ([3]; 10 mg QW × 3 oral (N = 3)) was 2 (66.7%), the “Number (%) of Subjects with Any TEAE Related to Study Drug Grade 2, 3, 4, or 5” value ([3]; 10 mg QW × 3 oral (N = 3)) was 0 and the “Number (%) of Subjects with Any Treatment-emergent Serious AE” value ([3]; 10 mg QW × 3 oral (N = 3)) was 0. The “Number (%) of Subjects with Any Death” value ([3]; 25 mg QW × 3 oral (N = 6)) was 0, the “Number (%) of Subjects with Any TEAE” value ([3]; 25 mg QW × 3 oral (N = 6)) was 2 (33.3%) and the “Number (%) of Subjects with Any TEAE Grade 1” value ([3]; 25 mg QW × 3 oral (N = 6)) was 2 (33.3%). For the same compound, the “Number (%) of Subjects with Any TEAE Grade 2, 3, 4, or 5” value ([3]; 25 mg QW × 3 oral (N = 6)) was 0, the “Number (%) of Subjects with Any TEAE Leading to Premature Discontinuation of Study Drug” value ([3]; 25 mg QW × 3 oral (N = 6)) was 0 and the “Number (%) of Subjects with Any TEAE Related to Study Drug” value ([3]; 25 mg QW × 3 oral (N = 6)) was 2 (33.3%). For the same compound, the “Number (%) of Subjects with Any TEAE Related to Study Drug Grade 1” value ([3]; 25 mg QW × 3 oral (N = 6)) was 2 (33.3%), the “Number (%) of Subjects with Any TEAE Related to Study Drug Grade 2, 3, 4, or 5” value ([3]; 25 mg QW × 3 oral (N = 6)) was 0 and the “Number (%) of Subjects with Any Treatment-emergent Serious AE” value ([3]; 25 mg QW × 3 oral (N = 6)) was 0. The tolerability ([3]; single doses up to 200 mg and repeat doses up to 25 mg, healthy adults) was “generally well tolerated”, the “PK profiles of ISL in plasma and ISL-TP in PBMC cells” value ([4]; after single and multiple oral administrations of 1-A) was “linear pharmacokinetics” and the “systemic exposure to 1-A (plasma, LLOQ)” value ([4]; single or multiple oral administrations of 1-A up to 200 mg, healthy adults) was < 1.0 ng/mL. For the same compound, the “EFdA accumulation in plasma” value [4, 7] was “No meaningful EFdA accumulation”, the “ISL plasma PK profiles” value [4, 7] was “Dose-dependent” and the “ISL-TP in PBMCs AUClast” value ([5]; Day 1) was 617 h*pmol/10^6 cells. For the same compound, the “ISL-TP in PBMCs Cmax” value ([5]; Day 1) was 5.70 pmol/10^6 cells, the “ISL-TP in PBMCs AUClast” value ([5]; Day 15) was 2210 h*pmol/10^6 cells and the “ISL-TP in PBMCs Cmax” value ([5]; Day 15) was 15.4 pmol/10^6 cells. For the same compound, the “ISL-TP accumulation in PBMCs” value ([5]; after 3 weekly doses of 25 mg 1-A) was “significant ISL-TP accumulations”, the “intracellular formation of ISL-TP in PBMCs” value ([5]; oral 1-A, dose-dependent manner) was “Efficient intracellular formation” and the half-life ([6]; human liver S9) was < 0.833 h. For the same compound, the “Stability in Human Liver S9 Formation of EFdA at 60 min” value ([6]; human liver S9, 60 min) was “Yes” and the “conversion to the target drug” value ([6]; human liver S9 assay) was “converted to the target drug efficiently”.
